Results on eleven compounds are retold here after patent publication US20250059188A1, “ARYLSULPHONAMIDE COMPOUNDS” (Anaxis Pharma Pty Ltd, priority 2021, published 2025).

The term Kd denotes the equilibrium constant for the complex coming apart. What is called IC50 is the point on the concentration scale where inhibition reaches its midpoint.

The target of one experiment is human MLKL (full length) (Homo sapiens (Human), UniProt Q8NB16). In words: KINOMEscan binding assay, human MLKL (full length). The following applies: equilibrium dissociation constant. On the procedure:
(§1) Binding affinity of the test compounds for human MLKL (full length), mouse MLKL (full length), human RIPK1 and human RIPK3 was determined using the KINOMEscan™ technology developed by DiscoverX (USA; http://www.discoverx.com). The assay was conducted according to manufacturer instructions.
(§2) Kinase assays. For most assays, kinase-tagged T7 phage strains were grown in parallel in 24-well blocks in an E. coli host derived from the BL21 strain. E. coli were grown to log-phase and infected with T7 phage from a frozen stock (multiplicity of infection=0.4) and incubated with shaking at 32° C. until lysis (90-150 minutes). The lysates were centrifuged (6,000×g) and filtered (0.2 μm) to remove cell debris. The remaining kinases were produced in HEK-293 cells and subsequently tagged with DNA for qPCR detection. […] The liganded beads were blocked with excess biotin and washed with blocking buffer (SeaBlock (Pierce), 1% BSA, 0.05% Tween 20, 1 mM DTT) to remove unbound ligand and to reduce non-specific phage binding. […] All reactions were performed in polypropylene 384-well plates in a final volume of 20 μL. […] The kinase concentration in the eluates was measured by qPCR.
(§3) An 11-point 3-fold serial dilution of each test compound was prepared in 100% DMSO at 100× final test concentration and subsequently diluted to 1× in the assay (final DMSO concentration=1%). Most Kos were determined using a compound top concentration=30,000 nM.
(§4) KD for each test compound was calculated with a standard dose-response curve using the Hill equation (equation (1)): […]
(§5) The Hill Slope was set to −1.
(§6) Curves were fitted using a non-linear least square fit with the Levenberg-Marquardt algorithm.

For another experiment, the target named is human RIPK1 (Homo sapiens (Human), UniProt Q13546). In words: KINOMEscan binding assay, human RIPK1. The following applies: equilibrium dissociation constant. On the procedure:
as §1, §2, §3, §4, §5, §6

Another experiment has as its system U937 cells. Put plainly: Counter screen: U937 cell viability without TSQ cocktail (off-target effect). Details: species or system human. The following applies: Homo sapiens, U-937, compound without TSQ cocktail, read-out: Off-target effect (IC50 cell-based assay). On the procedure:
(§7) • Cell Line ID: U937 human histiocytic leukemia cell line. • Cell Concentration (cells/well): Final cell density is 20000 cells per well. • Cell growth medium: HT-RPMI medium+7.4% Fetal Bovine Serum (FBS). Cells are cultured in Corning 150 cm^2 tissue culture flasks with vented caps at 37° C./5% CO2. • Incubation: Plates were incubated at 37° C./5% CO2 in a humidified incubator for 48 hours following addition of compounds and death stimuli (TSQ cocktail). • Compound concentration: 36 μM starting concentration, 1:3 dilution, 10 point • DMSO final concentration (% v/v): 0.3%. Compounds in TSQ Cocktail (T: TNF; S: Smac Mimetic; Q: Q-VD-OPh) and their Final Concentrations: • hTNF-Fc (100 ng/ml)—produced by standard procedures as shown in Bossen et al., J. Biol. Chem., 2006, 281(20), 13964-13971. • Compound A (500 nM) —Smac mimetic, Tetralogic and SYNthesis med chem • Q-VD-OPh (10 μM) —MP Biomedicals
(§8) The cellular assay was carried out according to the following steps: • 1. Each well was prepared by sequential addition of: • a. DMSO (control; columns 1-2 and 23-24) or compound in DMSO—addition was performed using acoustic transfer of nL volumes of stock compound to give final test concentrations of 36, 12, 4, 1.3, 0.44, 0.148, 0.049, 0.016, 0.005 and 0.002 μM. All wells were backfilled with DMSO to a final total volume in the well of 100 nL. • b. Following compound/DMSO addition in step (a), 40 μL of cell suspension (5×10^5 cells/mL) was added to provide a final cell concentration of 20,000 cells per well, and • c. Following cell addition in step (b), 10 μL of 5×TSQ cocktail (except to positive controls; columns 1 and 23) was added to each well. • 2. After 48 hours, plate was removed from the 37° C. incubator and equilibrated to room temperature for 45 minutes. • 3. 15 μL of room temperature CellTitre-Glo2™ (Promega™) was added to each well. • 4. Shook plates for 2 minutes (˜600 rpm) and incubated at room temperature for 15 minutes to allow signal to stabilise. • 5. Read luminescence readout on a plate reader.
(§9) 10 point titration curves were fitted with the 4 parameter logistic nonlinear regression model and the IC50 reported reflect the inflection point of the curve for curve fitting.
(§10) • Assay involving the TSQ cocktail (T: TNF; S: Smac mimetic; Q: Q-VD-OPh): TSQ treatment ensures that cells specifically undergo necroptotic cell death. TNF activates the TNF receptor, Smac mimetic directs the signal away from proinflammatory signaling and toward the RIPK1/RIPK3-mediated cell death pathways, and Q-VD-OPh ensures that the apoptotic response is blocked leaving only the programmed necrosis response. The compounds' activity (solution in DMSO) tested in this TSQ-induced assay was evaluated by determining the number of viable cells in culture by measuring the amount of ATP present as measured by CelltiterGlo. • Counter screen: In parallel, all compounds were tested for their ability to affect cell viability. The same U937 cells were treated with compound in DMSO without the TSQ cocktail. This counter screen enabled evaluation of off-target effects. In this case, cell viability was measured by CelltiterGlo.
Background: A counterscreen serves to expose hits that act by an unwanted route or on another target.

In a further experiment the target is human RIPK3 (Homo sapiens (Human), UniProt Q9Y572). In words: KINOMEscan binding assay, human RIPK3. The following applies: equilibrium dissociation constant. On the procedure:
as §1, §2, §3, §4, §5, §6

The test system of experiment [1] is U937 human histiocytic leukemia cell line. Put plainly: Inhibition of TSQ induced necroptosis in U937 cells (CellTitre-Glo). The following applies: Homo sapiens, U-937, TSQ cocktail (TNF, Smac mimetic, Q-VD-OPh), 48 hours, read-out: Inhibition of TSQ-induced necroptosis (IC50 cell-based assay). As to the method:
Cellular Assay: Screening Compounds for Inhibition of TSQ Induced Necroptosis, 384 Well Plate Format.
as §7, §8
Percent viability was calculated for each compound according to equation (2): […]
as §9, §10

human RIPK1, sequence (Q13546 whole entry): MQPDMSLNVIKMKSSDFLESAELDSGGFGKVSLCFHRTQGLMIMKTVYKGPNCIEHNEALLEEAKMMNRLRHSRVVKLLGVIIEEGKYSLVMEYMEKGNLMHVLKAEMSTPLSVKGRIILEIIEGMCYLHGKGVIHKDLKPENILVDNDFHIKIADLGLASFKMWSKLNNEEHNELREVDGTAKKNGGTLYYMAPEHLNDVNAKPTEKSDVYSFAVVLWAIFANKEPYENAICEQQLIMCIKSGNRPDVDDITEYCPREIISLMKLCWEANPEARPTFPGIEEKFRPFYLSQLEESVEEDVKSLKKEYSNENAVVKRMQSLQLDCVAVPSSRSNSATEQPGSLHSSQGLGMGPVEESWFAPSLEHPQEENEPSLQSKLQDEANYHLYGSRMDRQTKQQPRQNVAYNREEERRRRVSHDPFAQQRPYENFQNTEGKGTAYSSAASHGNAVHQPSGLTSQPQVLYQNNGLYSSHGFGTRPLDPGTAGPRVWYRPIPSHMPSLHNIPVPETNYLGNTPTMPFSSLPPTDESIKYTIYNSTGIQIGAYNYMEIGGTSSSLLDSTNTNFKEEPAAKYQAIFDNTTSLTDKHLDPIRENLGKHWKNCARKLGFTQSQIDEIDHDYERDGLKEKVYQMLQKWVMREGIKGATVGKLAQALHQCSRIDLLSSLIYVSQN
human RIPK3, sequence (Q9Y572 whole entry): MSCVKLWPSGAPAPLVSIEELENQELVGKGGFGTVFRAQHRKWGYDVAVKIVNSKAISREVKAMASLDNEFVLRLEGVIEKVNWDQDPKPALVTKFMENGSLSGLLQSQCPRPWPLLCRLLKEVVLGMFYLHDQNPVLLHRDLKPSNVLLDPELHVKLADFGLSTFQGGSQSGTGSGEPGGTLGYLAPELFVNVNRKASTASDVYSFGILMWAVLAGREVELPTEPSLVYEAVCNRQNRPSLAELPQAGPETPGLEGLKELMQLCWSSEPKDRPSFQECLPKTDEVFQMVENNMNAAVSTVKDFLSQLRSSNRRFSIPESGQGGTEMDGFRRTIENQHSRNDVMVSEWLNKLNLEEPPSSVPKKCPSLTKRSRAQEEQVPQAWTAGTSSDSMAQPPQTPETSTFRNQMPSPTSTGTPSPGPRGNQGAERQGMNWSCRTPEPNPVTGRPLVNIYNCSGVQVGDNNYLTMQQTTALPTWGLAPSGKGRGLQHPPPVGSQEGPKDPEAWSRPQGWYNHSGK
human MLKL (full length), sequence (Q8NB16 whole entry): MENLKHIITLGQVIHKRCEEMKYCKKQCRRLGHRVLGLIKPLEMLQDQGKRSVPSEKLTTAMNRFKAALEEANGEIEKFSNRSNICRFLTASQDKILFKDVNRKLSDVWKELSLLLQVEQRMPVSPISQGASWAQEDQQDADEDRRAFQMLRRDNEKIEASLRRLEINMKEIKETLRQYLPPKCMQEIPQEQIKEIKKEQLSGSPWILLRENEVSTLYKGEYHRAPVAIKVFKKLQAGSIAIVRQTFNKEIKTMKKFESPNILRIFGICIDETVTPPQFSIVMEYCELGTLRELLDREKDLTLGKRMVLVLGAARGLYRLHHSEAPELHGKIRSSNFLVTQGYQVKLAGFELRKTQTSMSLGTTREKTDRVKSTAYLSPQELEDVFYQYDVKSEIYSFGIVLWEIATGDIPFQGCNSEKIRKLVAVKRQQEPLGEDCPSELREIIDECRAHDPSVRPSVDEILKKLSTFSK

Regarding `CC1CNCC(n2cc(-c3cnc(N)c4c(-c5ccc(NS(=O)(=O)C(F)F)c(O[C@@H](C)c6ccc(F)cc6)c5)nn(C)c34)cn2)C1` (stereo partly drawn) [Compound 95, N-(4-(4-amino-1-methyl-7-(1-(5-methylpiperidin-3-yl)-1H-pyrazol-4-yl)-1H-pyrazolo[4,3-c]pyridin-3-yl)-2-((S)-1-(4-fluorophenyl)ethoxy)phenyl)-1,1-difluoromethanesulfonamide], the Kd on human MLKL (full length) was 0.001 to 0.1 µM; on human RIPK1, above 10 µM; at human RIPK3 it was above 10 µM. For the same compound, the IC50 with U937 cells was above 10 µM; in experiment [1], 0.01 to 1 µM.
As to `CC(C)N1CC(n2cc(-c3cnc(N)c4c(-c5ccc(NS(=O)(=O)C(F)F)c(O[C@@H](C)c6ccc(F)cc6)c5)nn(C)c34)cn2)C1` [Compound 76, (S)-N-(4-(4-amino-7-(1-(1-isopropylazetidin-3-yl)-1H-pyrazol-4-yl)-1-methyl-1H-pyrazolo[4,3-c]pyridin-3-yl)-2-(1-(4-fluorophenyl)ethoxy)phenyl)-1,1-difluoromethanesulfonamide], the Kd on human MLKL (full length) was below 0.001 µM; on human RIPK1 it was above 10 µM; at human RIPK3 it was above 10 µM. In addition, the IC50 was above 10 µM in the experiment with U937 cells and below 0.01 µM in experiment [1].
Take `Cc1nn(C2CCN(C)C(C)(C)C2)cc1-c1cnc(N)c2c(-c3ccc(NS(=O)(=O)C(F)F)c(O[C@@H](C)c4ccc(F)cc4)c3)nn(C)c12` (stereo partly drawn) [Compound 156, N-(4-(4-amino-1-methyl-7-(3-methyl-1-(1,2,2-trimethylpiperidin-4-yl)-1H-pyrazol-4-yl)-1H-pyrazolo[4,3-c]pyridin-3-yl)-2-((S)-1-(4-fluorophenyl)ethoxy)phenyl)-1,1-difluoromethanesulfonamide]: the figures for the Kd at human MLKL (full length), at human RIPK1 and on human RIPK3 were 0.001 to 0.1 µM, above 10 µM and above 10 µM, respectively. Also, the IC50 with U937 cells is above 10 µM; in experiment [1], 0.01 to 1 µM.
`C[C@H](Oc1cc(-c2nn(C)c3c(-c4cnn(C(F)F)c4)cnc(N)c23)ccc1NS(=O)(=O)C(F)F)c1ccc(F)cc1` [Compound 123, (S)-N-(4-(4-amino-7-(1-(difluoromethyl)-1H-pyrazol-4-yl)-1-methyl-1H-pyrazolo[4,3-c]pyridin-3-yl)-2-(1-(4-fluorophenyl)ethoxy)phenyl)-1,1-difluoromethanesulfonamide]: the Kd was below 0.001 µM on human MLKL (full length), above 10 µM on human RIPK1 and above 10 µM at human RIPK3. Also, the IC50 in the experiment with U937 cells is above 10 µM; in experiment [1], below 0.01 µM.
With `Cc1cc(-c2cnc(N)c3c(-c4ccc(NS(=O)(=O)C(F)F)c(O[C@@H](C)c5ccc(F)cc5)c4)nn(C)c23)ccn1` [Compound 24, (S)-N-(4-(4-amino-1-methyl-7-(2-methylpyridin-4-yl)-1H-pyrazolo[4,3-c]pyridin-3-yl)-2-(1-(4-fluorophenyl)ethoxy)phenyl)-1,1-difluoromethanesulfonamide], the values for the Kd at human MLKL (full length), on human RIPK1 and at human RIPK3 were below 0.001 µM, above 10 µM and above 10 µM, respectively. In addition, the IC50 in the experiment with U937 cells was above 10 µM; in experiment [1] it was 0.01 to 1 µM.
Consider `COC[C@H](Oc1cc(-c2nn(C)c3c(-c4cnn(C5CCOCC5)c4)cnc(N)c23)ccc1NS(=O)(=O)C(F)F)c1ccc(F)cc1` [Compound 111, (R)—N-(4-(4-amino-1-methyl-7-(1-(tetrahydro-2H-pyran-4-yl)-1H-pyrazol-4-yl)-1H-pyrazolo[4,3-c]pyridin-3-yl)-2-(1-(4-fluorophenyl)-2-methoxyethoxy)phenyl)-1,1-difluoromethanesulfonamide], for which the results for the Kd at human MLKL (full length), at human RIPK1 and on human RIPK3 were 0.001 to 0.1 µM, above 10 µM and above 10 µM, respectively. The IC50 in the experiment on U937 cells was above 10 µM; in experiment [1], 0.01 to 1 µM.
As to `C[C@H](Oc1cc(-c2nn(C)c3c(-c4cnn(C5CNC5)c4)cnc(N)c23)ccc1NS(=O)(=O)C(F)F)c1ccc(F)cc1` [Compound 94, (S)-N-(4-(4-amino-7-(1-(azetidin-3-yl)-1H-pyrazol-4-yl)-1-methyl-1H-pyrazolo[4,3-c]pyridin-3-yl)-2-(1-(4-fluorophenyl)ethoxy)phenyl)-1,1-difluoromethanesulfonamide], the Kd at human MLKL (full length) was below 0.001 µM; at human RIPK1 it was above 10 µM; on human RIPK3 it was above 10 µM. The IC50 in the experiment with U937 cells is above 10 µM; in experiment [1], 0.01 to 1 µM.
On to `C[C@H](Oc1cc(-c2nn(C)c3c(-c4cnn(C5CCOCC5)c4)cnc(N)c23)ccc1NS(=O)(=O)CC(F)(F)F)c1ccc(F)cc1` [Compound 44, (S)—N-(4-(4-amino-1-methyl-7-(1-(tetrahydro-2H-pyran-4-yl)-1H-pyrazol-4-yl)-1H-pyrazolo[4,3-c]pyridin-3-yl)-2-(1-(4-fluorophenyl)ethoxy)phenyl)-2,2,2-trifluoroethane-1-sulfonamide], for which the Kd at human MLKL (full length) is 0.001 to 0.1 µM; at human RIPK1, above 10 µM; at human RIPK3, above 10 µM. For the same compound, the figures for the IC50 (with U937 cells; in experiment [1]) were above 10 µM and 0.01 to 1 µM, respectively.
Turning to `C[C@H](Oc1cc(-c2cnn3c(-c4cnn(C)c4)cnc(N)c23)ccc1NS(=O)(=O)C(F)F)c1ccc(F)cc1` [Compound 35, (S)-N-(4-(4-amino-7-(1-methyl-1H-pyrazol-4-yl)pyrazolo[1,5-a]pyrazin-3-yl)-2-(1-(4-fluorophenyl)ethoxy)phenyl)-1,1-difluoromethanesulfonamide], the Kd on human MLKL (full length) was below 0.001 µM; at human RIPK1 it was above 10 µM; at human RIPK3 it was above 10 µM. For the same compound, the IC50 in the experiment on U937 cells is above 10 µM; in experiment [1], 0.01 to 1 µM.
As to `CCS(=O)(=O)Nc1ccc(-c2nn(C)c3c(-c4cccnc4)cnc(N)c23)cc1OCc1ccc(F)cc1` [Compound 1, N-(4-(4-amino-1-methyl-7-(pyridin-3-yl)-1H-pyrazolo[4,3-c]pyridin-3-yl)-2-((4-fluorobenzyl)oxy)phenyl)ethanesulfonamide], the Kd on human RIPK1 and at human RIPK3 was above 10 µM throughout. The IC50 was above 10 µM in the experiment on U937 cells and 1 to 10 µM in experiment [1].
`Cn1nc(-c2ccc(NS(=O)(=O)C(F)F)c(OCc3ccc(F)cc3)c2)c2c(N)ncc(-c3cnn(CCO)c3)c21` [Compound 12, N-(4-(4-amino-7-(1-(2-hydroxyethyl)-1H-pyrazol-4-yl)-1-methyl-1H-pyrazolo[4,3-c]pyridin-3-yl)-2-((4-fluorobenzyl)oxy)phenyl)-1,1-difluoromethanesulfonamide]: the figures for the IC50 (in the experiment on U937 cells; in experiment [1]) were above 10 µM and 1 to 10 µM, respectively.
